# Publication PMC10214531 (ACS Central Science, 2023)
# How the values were obtained:
# Assay type in all cases: cell-based, human
# [1] = system: GLP-1R mutants of L172, C174, N177, Y250 and M340; test: cAMP accumulation assay, mutants of functional residues except F169; settings: mutants of six functional residues except F169; four independent experiments
# Text: The cDNA of human GLP-1R was cloned into vector pcDNA 3.1 or pRK. In the cAMP assay, the GLP-1R sequence comprises the native signal peptide (residues 1–23) and a FLAG tag. In flow cytometry analysis, the GLP-1R sequence contains the same native signal peptide, followed by a FLAG or HA tag. Mutations or deletions for the cAMP assay and flow cytometry were generated using seamless cloning with KOD-Plus-Neo (TOYOBO) and confirmed by DNA sequencing.
# After overnight of culture, specified amounts of wild-type or mutant GLP-1R and 0.5 μg of pGloSensor cAMP plasmid were cotransfected into HEK-293T cells using calcium phosphate. After 24 h of culture, the transfected cells were seeded into 384-well plates (12 000 cells per well). cAMP accumulation was measured using the GloSensor cAMP assay kit (Promega) according to the manufacturer’s instructions. In brief, transfected cells were incubated for 30 min in GloSensor cAMP reagent at 37 °C and room temperature.
# (§1) Significant difference is accepted at p < 0.05.
# [2] = system: GLP-1R-mediated Gs activation, Gαs truncation of residues 2-8; test: G protein activation assay (BRET2 TRUPATH), Gαs truncated 2-8; settings: Gαs truncation of residues 2-8, vs WT, HEK-293T
# Method: (§2) Cells were treated with 20 μL of each compound.
# as §1
# GLP-1R F169 = test: G protein activation assay (BRET2 TRUPATH); settings: agonist GLP-1, HEK-293T, s.d.
# Method: as §2, §1
# GLP-1R Y250 = test: G protein activation assay (BRET2 TRUPATH); settings: agonist GLP-1, HEK-293T, s.d.
# Method: as §2, §1
# [3] = system: GLP-1R-mediated Gs activation, Gαs truncation of residues 2-10; test: G protein activation assay (BRET2 TRUPATH), Gαs truncated 2-10; settings: Gαs truncation of residues 2-10, vs WT, HEK-293T
# Method: as §2, §1
# [4] = system: GLP-1R-mediated Gs activation, Gαs L394 to alanine; test: G protein activation assay (BRET2 TRUPATH), Gαs mutant L394 to alanine; settings: Gαs L394 replaced by alanine, vs WT; HEK-293T
# Method: as §2, §1
# GLP-1R R344A = test: cAMP accumulation assay (GloSensor)
# [5] = system: GLP-1R-mediated Gs activation, Gαs L394 and L393 substituted; test: G protein activation assay (BRET2 TRUPATH), Gαs double mutant L393 and L394; settings: Gαs L394 and L393 both substituted, vs WT; HEK-293T
# Method: as §2, §1
# [6] = system: GLP-1R-mediated Gs activation, Gαs alanine mutants; test: G protein activation assay (BRET2 TRUPATH), alanine scan of 41 Gαs residues; settings: 16 of 41 Gαs alanine mutants, vs WT
# Method: as §2, §1
# GLP-1R alanine mutants = test: cAMP accumulation assay (GloSensor), alanine scan of 37 GLP-1R residues
Compound,cAMP signaling vs WT [1],Gs protein activation mediated by GLP-1R [2],Emax (GLP-1R F169),Emax (GLP-1R Y250),Gs protein activation mediated by GLP-1R [3],GLP-1 efficacy in inducing G protein dissociation [4],"EC50 (GLP-1R R344A; agonist GLP-1, HEK-293T, 15 min, 25 °C, surface expression 31±4.03 % WT)","Emax (GLP-1R R344A; agonist GLP-1, cAMP accumulation, HEK-293T)",GLP-1 activity in G protein dissociation [5],GLP-1 efficacy in Gs activation [6],"GLP-1 potency in cAMP signaling induction (GLP-1R alanine mutants; 18 of 37 GLP-1R alanine mutants, vs WT)",GLP-1 efficacy (cAMP) (GLP-1R alanine mutants; two mutants with abnormal expression (gray columns in Figure 5b))
exendin-4: another peptide agonist (exendin-4),attenuated cAMP signaling,–,–,–,–,–,–,–,–,–,–,–
N#Cc1ccc(COc2cccc(C3CCN(Cc4nc5ccc(C(=O)O)cc5n4C[C@@H]4CCO4)CC3)n2)c(F)c1 [PF 06882961],attenuated cAMP signaling,–,–,–,–,–,–,–,–,–,–,–
CC[C@H](C)[C@H](NC(=O)[C@H](Cc1ccccc1)NC(=O)[C@H](CCC(=O)O)NC(=O)[C@H](CCCCN)NC(=O)[C@H](C)NC(=O)[C@H](C)NC(=O)[C@H](CCC(N)=O)NC(=O)CNC(=O)[C@H](CCC(=O)O)NC(=O)[C@H](CC(C)C)NC(=O)[C@H](Cc1ccc(O)cc1)NC(=O)[C@H](CO)NC(=O)[C@H](CO)NC(=O)[C@@H](NC(=O)[C@H](CC(=O)O)NC(=O)[C@H](CO)NC(=O)[C@@H](NC(=O)[C@H](Cc1ccccc1)NC(=O)[C@@H](NC(=O)CNC(=O)[C@H](CCC(=O)O)NC(=O)[C@H](C)NC(=O)[C@@H](N)Cc1c[nH]cn1)[C@@H](C)O)[C@@H](C)O)C(C)C)C(=O)N[C@@H](C)C(=O)N[C@@H](Cc1c[nH]c2ccccc12)C(=O)N[C@@H](CC(C)C)C(=O)N[C@H](C(=O)N[C@@H](CCCCN)C(=O)NCC(=O)N[C@@H](CCCNC(=N)N)C(N)=O)C(C)C [GLP-1],–,significantly attenuated the Gs protein activation,101.04±3.59 % WT,13.84±2.59 % WT,significantly attenuated the Gs protein activation,decrease in GLP-1 efficacy,0.0865 ± 0.0099 nM,80±4 WT %,completely abolished the GLP-1 activity,significant reduction of GLP-1 efficacy in Gs activation for 16 mutants,significant reduction of GLP-1 potency in cAMP signaling induction for 18 mutants,deficient GLP-1 efficacy
